Test results reported in PubChem BioAssay (NCI).
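A five-concentration, 48-hour dose response in 96-well plates underlies each endpoint, interpolated linearly between surrounding concentrations. The concentration for full growth arrest is given as TGI.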

Columns and labels:
Experiment in all cases: DTP human tumour cell line panel, 48 h
786-0 renal = test system: 786-0 renal
A498 renal = test system: A498 renal
A549 NSCLC = test system: A549 NSCLC
ACHN renal = test system: ACHN renal
BT-549 breast = test system: BT-549 breast
CAKI-1 renal = test system: CAKI-1 renal
CCRF-CEM leukemia = test system: CCRF-CEM leukemia
COLO 205 colon = test system: COLO 205 colon
EKVX NSCLC = test system: EKVX NSCLC
HCT-116 colon = test system: HCT-116 colon
HCT-15 colon = test system: HCT-15 colon
HOP-62 NSCLC = test system: HOP-62 NSCLC
HOP-92 NSCLC = test system: HOP-92 NSCLC
HS 578T breast = test system: HS 578T breast
HT29 colon = test system: HT29 colon
IGROV1 ovarian = test system: IGROV1 ovarian
K-562 leukemia = test system: K-562 leukemia
KM12 colon = test system: KM12 colon
LOX IMVI melanoma = test system: LOX IMVI melanoma
M14 melanoma = test system: M14 melanoma
MALME-3M melanoma = test system: MALME-3M melanoma
MCF7 breast = test system: MCF7 breast
MDA-MB-231 breast = test system: MDA-MB-231 breast
MDA-MB-435 = test system: MDA-MB-435
MDA-N = test system: MDA-N
MOLT-4 leukemia = test system: MOLT-4 leukemia
NCI-H226 lung = test system: NCI-H226 lung
NCI-H23 lung = test system: NCI-H23 lung
NCI-H460 lung = test system: NCI-H460 lung
NCI-H522 lung = test system: NCI-H522 lung
NCI/ADR-RES ovarian = test system: NCI/ADR-RES ovarian
OVCAR-3 ovarian = test system: OVCAR-3 ovarian
OVCAR-4 ovarian = test system: OVCAR-4 ovarian
OVCAR-5 ovarian = test system: OVCAR-5 ovarian
OVCAR-8 ovarian = test system: OVCAR-8 ovarian
PC-3 prostate = test system: PC-3 prostate
RPMI-8226 leukemia = test system: RPMI-8226 leukemia
RXF 393 renal = test system: RXF 393 renal
SF-268 CNS = test system: SF-268 CNS
SF-295 CNS = test system: SF-295 CNS
SF-539 CNS = test system: SF-539 CNS
SK-MEL-2 melanoma = test system: SK-MEL-2 melanoma
SK-MEL-5 melanoma = test system: SK-MEL-5 melanoma
SK-OV-3 ovarian = test system: SK-OV-3 ovarian
SNB-19 CNS = test system: SNB-19 CNS
SNB-75 CNS = test system: SNB-75 CNS
SR leukemia = test system: SR leukemia
SW-620 colon = test system: SW-620 colon
T-47D breast = test system: T-47D breast
TK-10 renal = test system: TK-10 renal
U251 CNS = test system: U251 CNS
UACC-257 melanoma = test system: UACC-257 melanoma
UACC-62 melanoma = test system: UACC-62 melanoma
UO-31 renal = test system: UO-31 renal
DU-145 prostate = test system: DU-145 prostate
HCC-2998 colon = test system: HCC-2998 colon
HL-60(TB) leukemia = test system: HL-60(TB) leukemia
SK-MEL-28 melanoma = test system: SK-MEL-28 melanoma
SN12C renal = test system: SN12C renal

## Cn1c(COC(=O)NC2CCCCC2)c(COC(=O)NC2CCCCC2)c2ccc3ccccc3c21
786-0 renal
  TGI: > 100 µM
A498 renal
  TGI: 32 µM
A549 NSCLC
  TGI: > 100 µM
ACHN renal
  TGI: 53.6 µM
BT-549 breast
  TGI: > 100 µM
CAKI-1 renal
  TGI: 70.6 µM
CCRF-CEM leukemia
  TGI: > 100 µM
COLO 205 colon
  TGI: > 100 µM
EKVX NSCLC
  TGI: > 100 µM
HCT-116 colon
  TGI: > 100 µM
HCT-15 colon
  TGI: > 100 µM
HOP-62 NSCLC
  TGI: > 100 µM
HOP-92 NSCLC
  TGI: > 100 µM
HS 578T breast
  TGI: > 100 µM
HT29 colon
  TGI: > 100 µM
IGROV1 ovarian
  TGI: > 100 µM
K-562 leukemia
  TGI: > 100 µM
KM12 colon
  TGI: > 100 µM
LOX IMVI melanoma
  TGI: > 100 µM
M14 melanoma
  TGI: > 100 µM
MALME-3M melanoma
  TGI: > 100 µM
MCF7 breast
  TGI: > 100 µM
MDA-MB-231 breast
  TGI: > 100 µM
MDA-MB-435
  TGI: > 100 µM
MDA-N
  TGI: > 100 µM
MOLT-4 leukemia
  TGI: > 100 µM
NCI-H226 lung
  TGI: 95.8 µM
NCI-H23 lung
  TGI: 71.6 µM
NCI-H460 lung
  TGI: 13.5 µM
NCI-H522 lung
  TGI: 31.5 µM
NCI/ADR-RES ovarian
  TGI: 62 µM
OVCAR-3 ovarian
  TGI: > 100 µM
OVCAR-4 ovarian
  TGI: > 100 µM
OVCAR-5 ovarian
  TGI: > 100 µM
OVCAR-8 ovarian
  TGI: > 100 µM
PC-3 prostate
  TGI: > 100 µM
RPMI-8226 leukemia
  TGI: > 100 µM
RXF 393 renal
  TGI: 83.3 µM
SF-268 CNS
  TGI: > 100 µM
SF-295 CNS
  TGI: > 100 µM
SF-539 CNS
  TGI: 66.2 µM
SK-MEL-2 melanoma
  TGI: 93.4 µM
SK-MEL-5 melanoma
  TGI: > 100 µM
SK-OV-3 ovarian
  TGI: > 100 µM
SNB-19 CNS
  TGI: > 100 µM
SNB-75 CNS
  TGI: 78.9 µM
SR leukemia
  TGI: > 100 µM
SW-620 colon
  TGI: > 100 µM
T-47D breast
  TGI: > 100 µM
TK-10 renal
  TGI: > 100 µM
U251 CNS
  TGI: > 100 µM
UACC-257 melanoma
  TGI: > 100 µM
UACC-62 melanoma
  TGI: > 100 µM
UO-31 renal
  TGI: > 100 µM

## CCOC(=O)CC1(N)CC2c3ccccc3OC(=O)C2C(=O)N1 (stereo not given)
786-0 renal
  TGI: > 100 µM
A498 renal
  TGI: > 100 µM
A549 NSCLC
  TGI: > 100 µM
ACHN renal
  TGI: > 100 µM
BT-549 breast
  TGI: > 100 µM
CAKI-1 renal
  TGI: > 100 µM
CCRF-CEM leukemia
  TGI: > 100 µM
COLO 205 colon
  TGI: > 100 µM
DU-145 prostate
  TGI: > 100 µM
EKVX NSCLC
  TGI: > 100 µM
HCC-2998 colon
  TGI: > 100 µM
HCT-116 colon
  TGI: > 100 µM
HCT-15 colon
  TGI: > 100 µM
HL-60(TB) leukemia
  TGI: > 100 µM
HOP-62 NSCLC
  TGI: > 100 µM
HOP-92 NSCLC
  TGI: > 100 µM
HS 578T breast
  TGI: > 100 µM
HT29 colon
  TGI: > 100 µM
IGROV1 ovarian
  TGI: > 100 µM
K-562 leukemia
  TGI: > 100 µM
KM12 colon
  TGI: > 100 µM
LOX IMVI melanoma
  TGI: > 100 µM
M14 melanoma
  TGI: > 100 µM
MALME-3M melanoma
  TGI: > 100 µM
MDA-MB-231 breast
  TGI: > 100 µM
MDA-MB-435
  TGI: > 100 µM
MDA-N
  TGI: > 100 µM
MOLT-4 leukemia
  TGI: > 100 µM
NCI-H226 lung
  TGI: > 100 µM
NCI-H23 lung
  TGI: > 100 µM
NCI-H460 lung
  TGI: > 100 µM
NCI-H522 lung
  TGI: > 100 µM
NCI/ADR-RES ovarian
  TGI: > 100 µM
OVCAR-3 ovarian
  TGI: > 100 µM
OVCAR-4 ovarian
  TGI: > 100 µM
OVCAR-5 ovarian
  TGI: > 100 µM
OVCAR-8 ovarian
  TGI: > 100 µM
PC-3 prostate
  TGI: > 100 µM
RPMI-8226 leukemia
  TGI: > 100 µM
RXF 393 renal
  TGI: > 100 µM
SF-268 CNS
  TGI: > 100 µM
SK-MEL-2 melanoma
  TGI: > 100 µM
SK-MEL-28 melanoma
  TGI: > 100 µM
SN12C renal
  TGI: > 100 µM
SNB-19 CNS
  TGI: > 100 µM
SNB-75 CNS
  TGI: > 100 µM
SR leukemia
  TGI: > 100 µM
SW-620 colon
  TGI: > 100 µM
T-47D breast
  TGI: > 100 µM
TK-10 renal
  TGI: > 100 µM
U251 CNS
  TGI: > 100 µM
UACC-257 melanoma
  TGI: > 100 µM
UACC-62 melanoma
  TGI: > 100 µM
UO-31 renal
  TGI: > 100 µM

## COc1ccc(/C=C2\N=C3N(Cc4ccccc4)C=C(N)N3C2=O)cc1
786-0 renal
  TGI: > 100 µM
A498 renal
  TGI: > 100 µM
A549 NSCLC
  TGI: > 100 µM
ACHN renal
  TGI: > 100 µM
BT-549 breast
  TGI: > 100 µM
CAKI-1 renal
  TGI: > 100 µM
CCRF-CEM leukemia
  TGI: > 100 µM
COLO 205 colon
  TGI: > 100 µM
DU-145 prostate
  TGI: > 100 µM
EKVX NSCLC
  TGI: > 100 µM
HCC-2998 colon
  TGI: > 100 µM
HCT-116 colon
  TGI: > 100 µM
HCT-15 colon
  TGI: > 100 µM
HL-60(TB) leukemia
  TGI: > 100 µM
HOP-62 NSCLC
  TGI: > 100 µM
HOP-92 NSCLC
  TGI: > 100 µM
HS 578T breast
  TGI: 73 µM
HT29 colon
  TGI: > 100 µM
IGROV1 ovarian
  TGI: > 100 µM
K-562 leukemia
  TGI: > 100 µM
KM12 colon
  TGI: > 100 µM
LOX IMVI melanoma
  TGI: > 100 µM
M14 melanoma
  TGI: > 100 µM
MALME-3M melanoma
  TGI: > 100 µM
MCF7 breast
  TGI: > 100 µM
MDA-MB-231 breast
  TGI: > 100 µM
MDA-MB-435
  TGI: > 100 µM
MDA-N
  TGI: > 100 µM
MOLT-4 leukemia
  TGI: > 100 µM
NCI-H226 lung
  TGI: > 100 µM
NCI-H23 lung
  TGI: > 100 µM
NCI-H460 lung
  TGI: > 100 µM
NCI-H522 lung
  TGI: > 100 µM
NCI/ADR-RES ovarian
  TGI: > 100 µM
OVCAR-3 ovarian
  TGI: > 100 µM
OVCAR-4 ovarian
  TGI: > 100 µM
OVCAR-5 ovarian
  TGI: > 100 µM
OVCAR-8 ovarian
  TGI: > 100 µM
PC-3 prostate
  TGI: > 100 µM
RXF 393 renal
  TGI: > 100 µM
SF-268 CNS
  TGI: > 100 µM
SF-295 CNS
  TGI: > 100 µM
SF-539 CNS
  TGI: > 100 µM
SK-MEL-2 melanoma
  TGI: > 100 µM
SK-MEL-28 melanoma
  TGI: > 100 µM
SK-MEL-5 melanoma
  TGI: > 100 µM
SK-OV-3 ovarian
  TGI: > 100 µM
SN12C renal
  TGI: > 100 µM
SNB-19 CNS
  TGI: 48.2 µM
SNB-75 CNS
  TGI: 50.7 µM
SW-620 colon
  TGI: > 100 µM
T-47D breast
  TGI: > 100 µM
TK-10 renal
  TGI: > 100 µM
U251 CNS
  TGI: 92.3 µM
UACC-257 melanoma
  TGI: > 100 µM
UACC-62 melanoma
  TGI: > 100 µM
UO-31 renal
  TGI: > 100 µM
